Data on 22 compounds can be found in PubChem BioAssay AID330 (DTP/NCI, 2004).

In the test the test system is P388 leukemia ip, CD2F1 mice, survival T/C. The experiment in a line: NCI In Vivo Anticancer Drug Screen. Data for tumor model P388 Leukemia (intraperitoneal) in CD2F1 (CDF1) mice. As to conditions: endpoint: median survival time, higher = longer survival. An outline of the steps: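 Mice carrying the transplanted tumor received test compound or vehicle. Survival was recorded in each group, and the value is the treated-group measurement divided by that of the vehicle-treated control group.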

Where [1] appears, read: dose: 50.0 mg/kg/injection, schedule: Q01DX005 (ip), vehicle: Klucel (hydroxypropylcellulose) (HPC).
The mark [2] stands for this setting: dose: 100.0 mg/kg/injection, schedule: Q01DX005 (ip), vehicle: Klucel (hydroxypropylcellulose) (HPC).
Setting [3] is: dose: 200.0 mg/kg/injection, schedule: Q01DX005 (ip), vehicle: Klucel (hydroxypropylcellulose) (HPC).
[4] abbreviates: dose: 60.0 mg/kg/injection, schedule: Q01DX005 (ip), vehicle: saline with Tween-80.
Where [5] appears, read: dose: 120.0 mg/kg/injection, schedule: Q01DX005 (ip), vehicle: saline with Tween-80.
Setting [6] is: dose: 240.0 mg/kg/injection, schedule: Q01DX005 (ip), vehicle: saline with Tween-80.
Where [7] appears, read: dose: 50.0 mg/kg/injection, schedule: Q01DX009 (ip), vehicle: saline.
The mark [8] stands for this setting: dose: 100.0 mg/kg/injection, schedule: Q01DX009 (ip), vehicle: saline.
Where [9] appears, read: dose: 200.0 mg/kg/injection, schedule: Q01DX009 (ip), vehicle: saline.
Setting [10] is: dose: 100.0 mg/kg/injection, schedule: Q01DX005 (ip), vehicle: saline with Tween-80.
[11] abbreviates: dose: 200.0 mg/kg/injection, schedule: Q01DX005 (ip), vehicle: saline with Tween-80.
[12] abbreviates: dose: 1.56 mg/kg/injection, schedule: Q01DX009 (ip), vehicle: water.
Setting [13] is: dose: 12.5 mg/kg/injection, schedule: Q01DX009 (ip), vehicle: water.
The mark [14] stands for this setting: dose: 50.0 mg/kg/injection, schedule: Q01DX001 (ip), vehicle: saline.
Setting [15] is: dose: 50.0 mg/kg/injection, schedule: Q01DX009 (ip), vehicle: Klucel (hydroxypropylcellulose) (HPC).
The mark [16] stands for this setting: dose: 100.0 mg/kg/injection, schedule: Q01DX009 (ip), vehicle: Klucel (hydroxypropylcellulose) (HPC).
The mark [17] stands for this setting: dose: 200.0 mg/kg/injection, schedule: Q01DX009 (ip), vehicle: Klucel (hydroxypropylcellulose) (HPC).

Where “and” joins values, the source holds several entries; their conditions need not be identical. Equal values may be shown once. Inconclusive results and toxic doses are left out.

In the case of `CO[C@@]12[C@H](COC(N)=O)C3=C(C(=O)C(C)=C(NCCO)C3=O)N1C[C@@H]1N[C@@H]12`, the T/C (dose: 12.5 mg/kg/injection, schedule: Q01DX009 (ip), vehicle: saline sonified) is 95 % of control; the T/C (dose: 12.5 mg/kg/injection, schedule: Q04DX003 (ip), vehicle: saline with Tween-80) was 100 % of control; the T/C (dose: 25.0 mg/kg/injection, schedule: Q01DX009 (ip), vehicle: saline sonified) is 95 % of control; the T/C (dose: 25.0 mg/kg/injection, schedule: Q04DX003 (ip), vehicle: saline with Tween-80) is 100 % of control; the T/C (dose: 50.0 mg/kg/injection, schedule: Q01DX009 (ip), vehicle: saline sonified) was 95 % of control; the T/C (dose: 50.0 mg/kg/injection, schedule: Q04DX003 (ip), vehicle: saline with Tween-80) is 100 % of control.
Take `CC(C)=NNC1=NC(CC(C)C)P(=O)(NCCCCCCNP2(=O)SC(NN=C(C)C)=NC2CC(C)C)S1` (configuration not stated): the T/C is, setting by setting: (dose: 60.0 mg/kg/injection, schedule: Q01DX005 (ip), vehicle: Klucel (hydroxypropylcellulose) (HPC)) 97 % of control; (dose: 120.0 mg/kg/injection, schedule: Q01DX005 (ip), vehicle: Klucel (hydroxypropylcellulose) (HPC)) 103 % of control; (dose: 240.0 mg/kg/injection, schedule: Q01DX005 (ip), vehicle: Klucel (hydroxypropylcellulose) (HPC)) 95 % of control.
As for `O=C=Nc1cccc2c1C(=O)c1ccccc1-2`, the T/C runs as follows: under setting [1], 91 % of control; under setting [2], 88 % of control; under setting [3], 86 % of control.
As for `CC(=O)C1C(c2ccccc2)SC(c2ccccc2)CC1(C)O` (configuration not stated), the T/C (dose: 100.0 mg/kg/injection, schedule: Q04DX002 (ip), vehicle: Klucel (hydroxypropylcellulose) (HPC)) was 96 % of control; the T/C (dose: 200.0 mg/kg/injection, schedule: Q04DX002 (ip), vehicle: Klucel (hydroxypropylcellulose) (HPC)) is 94 % of control; the T/C (dose: 400.0 mg/kg/injection, schedule: Q04DX002 (ip), vehicle: Klucel (hydroxypropylcellulose) (HPC)) was 87 % of control.
In the case of `O=C(c1ccccc1)c1cc(Cl)ccc1NCC(O)COc1ccc(Cl)cc1` (configuration not stated), the T/C was 93 % of control under setting [4], 89 % of control under setting [5] and 88 % of control under setting [6].
Regarding `CN(C)N1C(=O)c2ccccc2NC1c1ccccc1` (configuration not stated), the T/C is, setting by setting: under setting [1], 87 % of control; under setting [2], 96 % of control; under setting [3], 94 % of control.
In the case of `O=C1OI(Cl)c2ccccc21`, the T/C runs as follows: under setting [4], 104 % of control; under setting [5], 104 % of control.
As for `CC(=O)Nc1ccc(N=Nc2c(O)c(S(=O)(=O)O)cc3cc(S(=O)(=O)O)ccc23)cc1`, the T/C under setting [7] was 102 % of control, the T/C under setting [8] is 97 % of control and the T/C under setting [9] was 103 % of control.
For the compound `CC(NNC(=S)N1CC2CCC(CC2)C1)c1cccc[n+]1[O-]` (configuration not stated), the T/C is, setting by setting: (dose: 50.0 mg/kg/injection, schedule: Q01DX005 (ip), vehicle: saline with Tween-80) 101 % of control; under setting [10], 100 % of control; under setting [11], 100 % of control.
As to `CN(O)C(=O)C(C)(C)C`, the T/C is 99 % of control under setting [10]; 103 % of control under setting [11]; 103 % of control (dose: 400.0 mg/kg/injection, schedule: Q01DX005 (ip), vehicle: saline with Tween-80).
As for `COc1cccc2c1C(=O)c1c(O)c3c(c(O)c1C2=O)CC(O)(C(=O)CBr)CC3OC(C)=O` (configuration not stated), the T/C was 109 % of control (dose: 1.56 mg/kg/injection, schedule: Q01DX009 (ip), vehicle: other); 103 % of control (dose: 3.13 mg/kg/injection, schedule: Q01DX009 (ip), vehicle: other); 105 % of control (dose: 6.25 mg/kg/injection, schedule: Q01DX009 (ip), vehicle: other); 113 % of control (dose: 12.5 mg/kg/injection, schedule: Q01DX009 (ip), vehicle: other); 109 % of control (dose: 25.0 mg/kg/injection, schedule: Q01DX009 (ip), vehicle: other).
For the compound `N#Cc1ccc(OCCCCCOc2ccc(C#N)cc2)cc1`, the T/C was 108 % of control (dose: 25.0 mg/kg/injection, schedule: Q01DX009 (ip), vehicle: saline with Tween-80); 100 % of control (dose: 50.0 mg/kg/injection, schedule: Q01DX009 (ip), vehicle: saline with Tween-80); 97 % of control (dose: 100.0 mg/kg/injection, schedule: Q01DX009 (ip), vehicle: saline with Tween-80); 99 % of control (dose: 200.0 mg/kg/injection, schedule: Q01DX009 (ip), vehicle: saline with Tween-80).
Regarding `COc1ccc([P+](CCN2C(=O)c3ccccc3C2=O)(c2ccc(OC)cc2)c2ccc(OC)cc2)cc1`, the T/C (dose: 0.78 mg/kg/injection, schedule: Q01DX009 (ip), vehicle: water) is 121 % of control; the T/C under setting [12] is 114 % of control; the T/C (dose: 2.7 mg/kg/injection, schedule: Q01DX009 (ip), vehicle: water) is 116 % of control; the T/C (dose: 3.13 mg/kg/injection, schedule: Q01DX009 (ip), vehicle: water) was 121 % of control; the T/C under setting [13] was 92 % of control.
For `COc1ccc(NN=O)cn1`, the T/C under setting [12] is 100 % of control; the T/C (dose: 3.12 mg/kg/injection, schedule: Q01DX009 (ip), vehicle: water) was 100 % of control and 105 % of control; the T/C (dose: 6.25 mg/kg/injection, schedule: Q01DX009 (ip), vehicle: water) was 99 % of control and 106 % of control; the T/C under setting [13] is 106 % of control and 107 % of control and 98 % of control; the T/C (dose: 25.0 mg/kg/injection, schedule: Q01DX009 (ip), vehicle: water) was 115 % of control and 122 % of control and 97 % of control; the T/C (dose: 50.0 mg/kg/injection, schedule: Q01DX009 (ip), vehicle: water) was 114 % of control and 122 % of control. The T/C was 122 % of control (dose: 100.0 mg/kg/injection, schedule: Q01DX009 (ip), vehicle: water) and 121 % of control (dose: 200.0 mg/kg/injection, schedule: Q01DX009 (ip), vehicle: water).
In the case of `O=C1OC(=O)C2CC3OC3CC12` (configuration not stated), the T/C (dose: 12.5 mg/kg/injection, schedule: Q01DX001 (ip), vehicle: saline) is 104 % of control; the T/C (dose: 25.0 mg/kg/injection, schedule: Q01DX001 (ip), vehicle: saline) was 109 % of control; the T/C under setting [14] is 100 % of control.
`COc1ccc(-c2nnc(N)o2)cc1OC`: the T/C was 107 % of control under setting [4], 98 % of control under setting [5] and 103 % of control under setting [6].
On to `NCCC1CCCCN1` (configuration not stated), for which the T/C reads like this: under setting [14], 95 % of control; (dose: 100.0 mg/kg/injection, schedule: Q01DX001 (ip), vehicle: saline) 105 % of control; (dose: 200.0 mg/kg/injection, schedule: Q01DX001 (ip), vehicle: saline) 105 % of control.
For `CC1NCCc2[nH]cnc21` (configuration not stated), the T/C reads like this: under setting [7], 96 % of control; under setting [8], 100 % of control; under setting [9], 105 % of control.
As for `O=S1(N2CC2)=NP(N2CC2)(N2CC2)=NP(N2CC2)(N2CC2)=N1` (configuration not stated), the T/C runs as follows: (dose: 100.0 mg/kg/injection, schedule: Q04DX002 (ip), vehicle: saline) 168 % of control; (dose: 150.0 mg/kg/injection, schedule: Q04DX002 (ip), vehicle: saline) 198 % of control.
As for `O=C1CC2C3C1N(c1ccc(Cl)cc1)C1(Nc4ccc(Cl)cc4)C(=O)CC(C31)N2c1ccc(Cl)cc1` (configuration not stated), the T/C (dose: 7.5 mg/kg/injection, schedule: Q01DX005 (ip), vehicle: Klucel (hydroxypropylcellulose) (HPC)) was 104 % of control; the T/C (dose: 15.0 mg/kg/injection, schedule: Q01DX005 (ip), vehicle: Klucel (hydroxypropylcellulose) (HPC)) is 101 % of control; the T/C (dose: 30.0 mg/kg/injection, schedule: Q01DX005 (ip), vehicle: Klucel (hydroxypropylcellulose) (HPC)) is 92 % of control.
Take `CCOC(=O)CCC(Br)(Br)Br`: the T/C by setting is: under setting [15], 100 % of control; under setting [16], 100 % of control; under setting [17], 97 % of control.
On to `COc1ccc(OC)c(/C=C/c2ccc([N+](=O)[O-])cc2)c1`, for which the T/C is, setting by setting: under setting [15], 100 % of control; under setting [16], 100 % of control; under setting [17], 86 % of control.
